One compound from patent US7041639B2, “Depsipeptide and congeners thereof for use as immunosuppressants” (XCYTE Therapies, Inc., priority 1999, dated 2006) can be followed below.

One test concerns NOD mice. Description: Diabetes onset in NOD mice. As to conditions: 0.5 mg/kg i.p. every other day; ten NOD animals. Type of test: in vivo. The protocol:
FR901228 was dissolved in 10% DMSO in PBS and were administered i.p. to NOD or NODSCID mice every other day. Controls contained only the DMSO excipient (10% DMSO in PBS). […] 0.5 mg/kg of FR901228 was administered at each treatment to twenty animals (ten NOD animals and ten NODSCID animals). Every two weeks the number of mice in each treatment group that had become diabetic was evaluated by measuring blood glucose levels using a glucometer at bi-weekly intervals. A reading of more than 200 mg/dl of blood glucose on two consecutive observations was considered indicative of frank diabetes.

The subject of test [1] is activation markers on CD4 cells. Description: Activation marker assays by flow cytometry. It counts as cell-based, human. From the text:
The effect of FR901228 on the induction of various activation markers on CD4 cells is studied. In this regard, cells are labeled with one or more of the following antibodies: anti-human CD4 Ab (Immunotech, Fullerton, Calif.), FITC-coupled anti-human CD11a Ab (Pharmingen), FITC-coupled anti-human CD26 Ab (Pharmingen), FITC-coupled anti-human CD49d Ab (Coulter), FITC-coupled anti-human CD54 Ab (Pharmingen and Becton Dickinson), FITC-coupled anti-human CD95 Ab (Pharmingen), FITC-coupled anti-human CD134 Ab (Pharmingen), FITC-coupled anti-human CD25 Ab (Becton Dickinson, Fullerton, Calif.), FITC-coupled anti-human CD69 Ab (Becton Dickinson), FITC- or PE-coupled anti-human CD154 Ab (Becton Dickinson), or FITC- or PE- coupled IgG1 isotype control Ab. Cells, 2×10^5 are labeled for 20 minutes at 4° C. with 2 μl of each antibody in a final volume of 30 μl, washed and resuspended in 1% parformaldehyde (Sigma, St. Louis, Mo.). […] In contrast, CD69 induction is not affected by 100 ng/ml FR901228 (FIG. 5C).

For a further test, the system named is CD4 cells. Description: Proliferation by MTT assay, purified CD4 cell cultures. It counts as cell-based, human. As to conditions: for concentration with no significant effect on proliferation of CD4 cells / lowest concentration that completely inhibits proliferation of CD4 cells: MTT day 3; for lowest concentration that completely inhibits proliferation of CD4 cells: 2 hour incubation prior to stimulation. As for the experimental part: Cells isolated from human blood are grown in X-vivo media (Biowhittaker Inc., Walkersville, Md.) and depending on use supplemented with or without 20 U/ml IL-2 (Boehringer Mannheim, Indianapolis, Ind.) and supplemented with 5% human serum (Biowhittaker), 2 mM Glutamine (Life Technologies, Rockville, Md.) and 20 mM HEPES (Life Technology). Jurkat E6-1 cells (ATCC, Manassas, Va.) are grown in RPMI 1640 (Life Technologies) supplemented with 10% fetal bovine serum (FBS) (Biowhittaker), 2 mM glutamine (Life Technologies), […] (Life Technologies), and […] (Life Technologies).
Buffy coats from healthy human volunteer donors are obtained (American Red Cross, Portland, Oreg.). Peripheral blood mononuclear cells (PBMC) are obtained using Lymphocyte Separation Media (ICN Pharmaceuticals, Costa Mesa, Calif.) according to the manufacturers' instructions.
Peripheral blood lymphocytes (PBL) are obtained from the PBMC fraction by incubation in a culture flask (Costar, Pittsburgh, Pa.) or with uncoated Dynabeads (Dynal, Oslo, Norway), 1×10^8 cells/ml, 2 beads/cell, 2 h at 37° C. Monocytes and macrophages are removed by adherence to the culture flask or phagocytoze the paramagnetic beads that are depleted by magnetic cell separation according to the manufacture's instruction (Dynal). CD4 cells are purified from the PBL fraction by incubation with 10 μg/ml of monoclonal antibodies against CD8 (clone G10-1), CD20 (clone IF5), CD14 (clone F13) and CD16 (Coulter), 10^8 cells/ml, 20 min at 4° C. After washing, cells are depleted twice with sheep anti-mouse Ig-coupled dynabeads (10^6 cells/ml, 6 beads/cell, 20 min at 4° C.) and magnetic cell separation. The purity of CD4 cells are routinely 91–95% as measured by flow cytometry.
Dendritic cells are generated from PBMC adhering to the culture flask (Costar), 10^8 cells/ml, 2 h at 37° C. (without Dynabeads). After extensive washing, adherent cells are cultured for 7 days in media containing 500 U/ml GM-CSF (Boehringer-Mannheim) and 12.5 U/ml IL-4 (Boehringer-Mannheim). The resulting cell population is weakly adherent and expresses surface markers characteristic of dendritic cells (positive for HLA-DR, CD86, CD83, CD11c and negative for CD4). (note:all antibodies obtained from Becton Dickinson, Calif.).
Cells are stimulated by three different methodologies 1) Dynabeads (M-450) covalently coupled to anti-CD3 (OKT-3) and anti-CD28 (9.3) antibodies (3×28 beads) according to the manufacturer's instructions (Dynal), 3 beads/cell, 2) Ionomycin (Calbiochem, La Jolla, Calif.) (100 ng/ml) and phorbol 12-myristate-13-acetate (PMA) (Calbiochem) (10 ng/ml), 3) allogeneic dendritic cells (25,000 dendritic cells/200,000 CD4 cells). All cells are stimulated at a concentration of 1×10^6 cells/ml. Cells are incubated with compounds of structure (I) (e.g., FR901228) (NCI, Bethesda, Md.) for 1 to 2 hours prior to stimulation as outlined above. Proliferation assays are conducted in quadruplicate in 96 well flat-bottom plates. Cells are stimulated at 1×10^6 cells/ml in a final volume of 200 μl. Proliferation is measured by MTT assay (MTT assay kit, Chemicon International Inc., Temecula, Calif.) at day 3 (stimulation method 1 and 2) or at day 6 (stimulation method 3), and results are presented as mean value of quadruplicates. PBL cultures or purified CD4 cell cultures are stimulated with 3×28 beads, ionomycin/PMA or allogenic dendritic cells. […] Further, […] cell survival is not affected by FR901228, as assessed by sub-G1 DNA measurement and integrity of the cell membrane (FIG. 5D). Lack of cytotoxicity of FR901228 is in agreement with results described by Byrd et al, Blood 94(4):1401–1408, 1999; Bates et al., Clinical Pharmacology, Programs and Proceedings of American Society of Clinical Oncology, Abstract 693, 1999; and Chassaing et al., J. Chrmatogr. B 719:169–176, 1998.

The mark [2] stands for this setting: 3×28 beads, 20 ng/ml, FIGS. 8A–8B.

Some results are limits rather than exact numbers.

With `C/C=C1\NC(=O)[C@H]2CSSCC/C=C/[C@H](CC(=O)N[C@H](C(C)C)C(=O)N2)OC(=O)[C@H](C(C)C)NC1=O` [FR901228], in the test on NOD mice, the “development of frank diabetes during the 18 week study” value is “no NOD mouse treated with the compound developed frank diabetes”. Moreover, the CD69 induction entry in test [1] (100 ng/ml, FIG. 5C) is “not affected”. In test [1] (setting [2]), the “CD69 induction or activation induced downregulation of CD62L” value is listed as “no significant affect”; the “induction of CD25, CD134, CD137w, CD154, CD11a, CD54, and CD95 on CD4 T-cells” value is “inhibition”. Also, the “lowest concentration at which CD154 expression is strongly suppressed” value in test [1] (after 3×28 bead stimulation, FIG. 5A) was found to be 10 ng/mL. Also, the “lowest concentration at which CD25 expression is strongly suppressed” value in test [1] (after 3×28 bead stimulation, FIG. 5B) was 10 ng/mL. Further, in the test with CD4 cells (3×28 beads), the “concentration with no significant effect on proliferation of CD4 cells” value was ≤ 1 ng/mL and the “lowest concentration that completely inhibits proliferation of CD4 cells” value was found to be 10 ng/mL. For the same compound, the “T-cell proliferation on addition of IL-2” value in the test on CD4 cells (addition of 100 U/ml IL-2) is listed as “will not restore proliferation”. Further, the “lowest concentration that significantly inhibits proliferation induced by allogenic dendritic cells” value with CD4 cells (allogenic dendritic cells, MTT day 6) turned out to be 1 ng/ml. In the test on CD4 cells (ionomycin/PMA), the “concentration with no significant effect on proliferation of CD4 cells” value is ≤ 1 ng/mL and the “lowest concentration that completely inhibits proliferation of CD4 cells” value came out at 10 ng/mL. Further, the “inhibition of CD4 positive T-cell proliferation” value with CD4 cells (stimulation by anti-CD3/anti-CD28 beads, FIG. 3) is listed as “dose dependent inhibition”. Besides, the “inhibition of CD4 positive T-cell proliferation” value in the test on CD4 cells (stimulation with in vitro generated allogenic dendritic cells, FIG. 4) was “dose dependent inhibition”.
